Assay results from US20160340633A1, “PLURIPOTENT STEM CELL EXPANSION AND PASSAGE USING A ROCKING PLATFORM BIOREACTOR” (General Electric Company, priority 2015, published 2016).

Tested on: CT2 human embryonic stem cells
Test: Expansion of slicer-passaged pluripotent stem cell aggregates cultured with or without Y27632 ROCK inhibitor
Assay type: cell-based
Method: In one example, aggregate formation and cell expansion was measured after passage with Accutase™ or with the square grid or hexagon grid slicer. After passaging, CT2 human embryonic stem cells were seeded in 6 well plates in 2 ml mTeSR1 at either 4×10̂5 cells per mL or 1.5×10̂6 cells per mL, with or without 10 uM Y27632 ROCK inhibitor. The plates were maintained on a Boekel Scientific Rocker II 260350 rocker platform in a standard cell culture incubator at 37 degrees C., 5% CO2, with culture conditions of 20 rocks per minute at a 15 degree rock angle. Aggregates formed from the accutased cells after overnight culture. Each day, the spent mTeSR1 was completely removed and replaced with fresh mTeSR1 without Y27632 ROCK inhibitor. On day 4, the aggregates were recovered, dissociated with Accutase™ and enumerated using a Nucleocounter NC200. […]
Aggregates were passed across the slicer in a flow stream consisting of 100 mL to 1 L volumes. […] The cell aggregate concentration used to pass through the slicer was determined to influence the recovery of sliced cell aggregates at high viability. […] It was determined that slicing of cell aggregate concentrations below about 3×10̂6 cells per mL produced higher viability samples with higher recovery than cell concentrations greater than about 3×10̂6 cells per mL. […]

C[C@@H](N)[C@H]1CC[C@H](C(=O)Nc2ccncc2)CC1 [Y27632 ROCK inhibitor, Y-27632]
expansion rates of slicer passaged aggregates cultured with or without Y27632 ROCK inhibitor (10 uM at seeding, 4×10^5 or 1.5×10^6 cells per mL, 6 well plates, rocking, counted day 4, square or hexagon grid slicer): similar
requirement of Y27632 ROCK inhibitor for expansion of sliced pluripotent stem cell aggregates (sliced aggregates in mTeSR1, optionally 1 to 10 uM, unlike enzymatically passaged aggregates): not required
